Test results published in US6310217A, “Acylpyrroledicarboxylic acids and acylindoledicarboxylic acids and their derivatives as inhibitors of cytosolic phospholipase A2” (Merckle GmbH, priority 1996, dated 2001).

Assays:
[1] = biological target: T1, cytosolic PLA2 (Bos taurus, UniProt A4IFJ5); assay: Inhibition of cytosolic phospholipase A2 in intact bovine platelets stimulated with calcium ionophore A23187; released arachidonic acid determined by reversed phase HPLC with UV detection; format: cell-based; conditions: A23187 stimulation, 5,8,11,14-eicosatetraynoic acid added, test substances normally dissolved in DMSO
T1 construct: endogenous in cells; host or cells: intact bovine platelets
T1 sequence (A4IFJ5 1-749): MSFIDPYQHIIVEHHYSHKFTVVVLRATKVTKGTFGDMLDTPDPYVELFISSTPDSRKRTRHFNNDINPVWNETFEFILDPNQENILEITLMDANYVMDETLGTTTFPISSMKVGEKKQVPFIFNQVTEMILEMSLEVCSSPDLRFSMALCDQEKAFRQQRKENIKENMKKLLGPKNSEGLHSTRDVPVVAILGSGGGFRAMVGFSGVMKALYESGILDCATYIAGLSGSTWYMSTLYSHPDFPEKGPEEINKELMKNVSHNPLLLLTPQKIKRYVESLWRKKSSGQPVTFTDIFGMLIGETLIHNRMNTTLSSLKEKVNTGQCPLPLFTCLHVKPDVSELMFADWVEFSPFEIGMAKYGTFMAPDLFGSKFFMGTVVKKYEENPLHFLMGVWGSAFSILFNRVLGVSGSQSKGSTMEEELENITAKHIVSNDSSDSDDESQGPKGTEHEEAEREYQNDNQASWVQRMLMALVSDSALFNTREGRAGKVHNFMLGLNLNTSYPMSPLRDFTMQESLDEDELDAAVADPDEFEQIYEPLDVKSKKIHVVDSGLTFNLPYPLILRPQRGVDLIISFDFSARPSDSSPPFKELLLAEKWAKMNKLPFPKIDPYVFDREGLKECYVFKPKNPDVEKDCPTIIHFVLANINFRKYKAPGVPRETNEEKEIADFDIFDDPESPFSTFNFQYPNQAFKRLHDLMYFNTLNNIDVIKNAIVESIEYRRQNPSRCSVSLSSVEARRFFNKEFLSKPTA
From the text: The efficacy of the compounds according to the invention can be determined on the basis of the inhibition of phospholipase A2. For this purpose, the phospholipaase A2 in intact bovine platelets is stimulated with calcium ionophore A23187, and thus the release of arachidonic acid from the membrane phospholipids is induced. In order to prevent metabolism of the enzyme product arachidonic acid by the cyclooxygenase pathway and the 12-lipoxygenase pathway, in this case the dual cyclooxygenase/12-lipoxygenase inhibitor 5,8,11,14-eicosatetraynoic acid is added. After purification by solid phase extraction, the released arachidonic acid is determined by reversed phase HPLC with UV detection. The inhibition of the enzyme by a test substance is evident from the ratio between the amounts of arachidonic acid formed in the presence and in the absence of the test substance. Further details of the test system are to be found in Example 15.
The efficacy of the compounds according to the invention can be determined from the inhibition of phospholipase A2. The assay method used has already been described (see Lehr M., In-vitro assay for the evaluation of phospholipase A2 inhibitors using bovine platelets and HPLC with UV-detection. Pharm.Pharmacol. Lett. 1992, 2, 176-179). The test substances were normally dissolved in DMSO.

[2] = system: mice; conditions: cited from earlier work

| SMILES | IC50 [1] | analgesic effect [2] |
| --- | --- | --- |
| CCCCCCCCCCCC(=O)c1c(C(=O)O)n(CCOc2ccc(CC(=O)O)cc2)c2ccccc12 [Example 14, 1-{2-[4-(Carboxymethyl)phenoxy]ethyl}-3-dodecanoyl-indole-2-carboxylic acid] | 1600 nM |  |
| Cn1c(C(=O)O)ccc1C(=O)C=Cc1ccccc1 [1-methyl-5-(3-phenylacryloyl)pyrrol-2-ylformic acid] |  | analgesic effect |
| CCCCCCCCCCCC(=O)c1c(C)c(CC(=O)O)n(Cc2cccc(CCC(=O)O)c2)c1C [Example 3, 3-(3-{[2-(Carboxymethyl)-4-dodecanoyl-3,5-dimethyl-pyrrol-1-yl]methyl}phenyl)propionic acid] | 3000 nM |  |
| CCCCCCCCCCCC(=O)c1c(C(=O)O)n(CCOc2cccc(CC(=O)O)c2)c2ccccc12 [Example 13, 1-{2-[3-(carboxymethyl)phenoxy]ethyl}-3-dodecanoyl-indole-2-carboxylic acid] | 1600 nM |  |
| CCCCCCCCCCCC(=O)c1c(C)c(CC(=O)O)n(Cc2cccc(/C=C/C(=O)O)c2)c1C [Example 2, (E)-3-{[2-(Carboxymethyl)-4-dodecanoyl-3,5-dimethyl-pyrrol-1-yl]methyl}cinnamic acid] | 4600 nM |  |
